tested on: c-Myc; assay: c-Myc immunofluorescence assay; type: cell-based, human; settings: A549 cells, 24 hours, anti-c-Myc immunofluorescence
In short: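 A549 NSCLC cells grown 48 h, then treated 24 h with increasing compound concentrations; fixed in 4% paraformaldehyde, stained with anti-c-Myc antibody plus fluorescent secondary and DAPI. Per-cell c-Myc fluorescence quantified by high-content imaging at 20×; dose-response fitted by logistic regression to give EC50.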

Which “Myc Efficacy (−LogEC50)” value does the source give for COc1ccc(-c2noc(N3CCN(C(=O)NCC4CCN(CC5CC5)C4)CC3)n2)cc1 (stereo not shown) [Compound 221, N-((1-(cyclopropylmethyl)pyrrolidin-3-yl)methyl)-4-(3-(4-methoxyphenyl)-1,2,4-oxadiazol-5-yl)piperazine-1-carboxamide] here?
The value was “+ (+ >3 and <5)”.

How did the “Myc Efficacy (−LogEC50)” value turn out when COc1ccc(CNC(=O)C2CCN(c3nc(-c4ccc(C(C)C)cc4)no3)CC2)cc1 [Compound 133, 1-(3-(4-isopropylphenyl)-1,2,4-oxadiazol-5-yl)-N-(4-methoxybenzyl)piperidine-4-carboxamide] was run?
Its value is “+ (+ >3 and <5)”.

For COCCCNC(=O)C1CCN(c2nc(-c3ccc(OC)cc3)no2)CC1 [Compound 112, 1-(3-(4-methoxyphenyl)-1,2,4-oxadiazol-5-yl)-N-(3-methoxypropyl)piperidine-4-carboxamide], which “Myc Efficacy (−LogEC50)” value is on record?
Its value is “+ (+ >3 and <5)”.

COc1ccc(-c2noc(N3CCC(C(=O)N[C@H]4CCN(Cc5ccccc5)C4)CC3)n2)cc1 [Compound 316, (S)-N-(1-benzylpyrrolidin-3-yl)-1-(3-(4-methoxyphenyl)-1,2,4-oxadiazol-5-yl)piperidine-4-carboxamide] was tested. Which “Myc Efficacy (−LogEC50)” value did it give?
The value was “+ (+ >3 and <5)”.

Which “Myc Efficacy (−LogEC50)” value does the source give for COc1ccc(-c2noc(N3CCC(C(=O)NCc4ccccn4)CC3)n2)cc1 [Compound 115, 1-(3-(4-methoxyphenyl)-1,2,4-oxadiazol-5-yl)-N-(pyridin-2-ylmethyl)piperidine-4-carboxamide] here?
The value was “− (− ≤3)”.

How did the “Myc Efficacy (−LogEC50)” value turn out when COc1cnc(-c2noc(N3CCC(C(=O)NCC4CCN(Cc5ccc(C)cc5)C4)CC3)n2)cn1 (stereo not shown) [Compound 233, 1-(3-(5-methoxypyrazin-2-yl)-1,2,4-oxadiazol-5-yl)-N-((1-(4-methylbenzyl)pyrrolidin-3-yl)methyl)piperidine-4-carboxamide] was run?
The value was “+ (+ >3 and <5)”.

With COc1ccc(-c2noc(N3CCC(C(=O)NCC(O)Cc4ccccc4)CC3)n2)cc1 (stereo not shown) [Compound 305, N-(2-hydroxy-3-phenylpropyl)-1-(3-(4-methoxyphenyl)-1,2,4-oxadiazol-5-yl)piperidine-4-carboxamide] as the compound, how does the “Myc Efficacy (−LogEC50)” value read?
Its value is “+ (+ >3 and <5)”.

For COc1ccc(-c2noc(N3CCC(C(=O)NCC4CCN(Cc5csc(C)n5)C4)CC3)n2)cc1 (stereo not shown) [Compound 383, 1-(3-(4-methoxyphenyl)-1,2,4-oxadiazol-5-yl)-N-((1-((2-methylthiazol-4-yl)methyl)pyrrolidin-3-yl)methyl)piperidine-4-carboxamide], which “Myc Efficacy (−LogEC50)” value is on record?
Its value is “++ (++ ≥5 and <6)”.

Which “Myc Efficacy (−LogEC50)” value does the source give for COc1ccc(-c2noc(N3CCC(C(=O)NCc4ccc5c(c4)CCO5)CC3)n2)cc1 [Compound 281, N-((2,3-dihydrobenzofuran-5-yl)methyl)-1-(3-(4-methoxyphenyl)-1,2,4-oxadiazol-5-yl)piperidine-4-carboxamide] here?
The value was “+ (+ >3 and <5)”.

With COc1ccc(-c2noc(N3CCC(C(=O)NCC4CCN(Cc5ccccc5C)C4)CC3)n2)cc1 (stereo not shown) [Compound 328, 1-(3-(4-methoxyphenyl)-1,2,4-oxadiazol-5-yl)-N-((1-(2-methylbenzyl)pyrrolidin-3-yl)methyl)piperidine-4-carboxamide] as the compound, how does the “Myc Efficacy (−LogEC50)” value read?
The value was “++ (++ ≥5 and <6)”.

With C#Cc1cccc(CN2CCC(CNC(=O)C3CCN(c4nc(-c5ccc(OC)cc5)no4)CC3)C2)c1 (stereo not shown) [Compound 324, N-((1-(3-ethynylbenzyl)pyrrolidin-3-yl)methyl)-1-(3-(4-methoxyphenyl)-1,2,4-oxadiazol-5-yl)piperidine-4-carboxamide] as the compound, how does the “Myc Efficacy (−LogEC50)” value read?
Its value is “++ (++ ≥5 and <6)”.

For Cc1ccc(CN2CC[C@H](CNC(=O)C3CCN(c4nc(-c5ccc(Cl)cc5)no4)CC3)C2)cc1 [Compound 168, (R)-1-(3-(4-chlorophenyl)-1,2,4-oxadiazol-5-yl)-N-((1-(4-methylbenzyl)pyrrolidin-3-yl)methyl)piperidine-4-carboxamide], which “Myc Efficacy (−LogEC50)” value is on record?
Its value is “++ (++ ≥5 and <6)”.

With COc1ccc(-c2noc(N3CCC(C(=O)NC4CCN(C)CC4)CC3)n2)cc1 [Compound 218, 1-(3-(4-methoxyphenyl)-1,2,4-oxadiazol-5-yl)-N-(1-methylpiperidin-4-yl)piperidine-4-carboxamide] as the compound, how does the “Myc Efficacy (−LogEC50)” value read?
The value was “− (− ≤3)”.

COc1ccc(-c2noc(N3CCC(C(=O)NCC4(c5ccc(F)cc5F)CC4)CC3)n2)cc1 [Compound 307, N-((1-(2,4-difluorophenyl)cyclopropyl)methyl)-1-(3-(4-methoxyphenyl)-1,2,4-oxadiazol-5-yl)piperidine-4-carboxamide] was tested. Which “Myc Efficacy (−LogEC50)” value did it give?
The value was “+ (+ >3 and <5)”.

Which “Myc Efficacy (−LogEC50)” value does the source give for Cc1ccc(CN2CCC(CNC(=O)C3CCN(c4nc(-c5ccc(OC(F)F)cc5)no4)CC3)C2)cc1 (stereo not shown) [Compound 238, 1-(3-(4-(difluoromethoxy)phenyl)-1,2,4-oxadiazol-5-yl)-N-((1-(4-methylbenzyl)pyrrolidin-3-yl)methyl)piperidine-4-carboxamide] here?
Its value is “+++ (+++ ≥6)”.

How did the “Myc Efficacy (−LogEC50)” value turn out when COc1ccc(-c2noc(N3CCC(C(=O)NCCCN4CCCC(C)C4)CC3)n2)cc1 (stereo not shown) [Compound 124, 1-(3-(4-methoxyphenyl)-1,2,4-oxadiazol-5-yl)-N-(3-(3-methylpiperidin-1-yl)propyl)piperidine-4-carboxamide] was run?
Its value is “+ (+ >3 and <5)”.

Which “Myc Efficacy (−LogEC50)” value does the source give for COc1ccc(-c2noc(N3CCC(C(=O)NCC4CCN(C[C@H]5CCCCN5)C4)CC3)n2)cc1 (stereo partly drawn) [Compound 415, 1-(3-(4-methoxyphenyl)-1,2,4-oxadiazol-5-yl)-N-((1-(((R)-piperidin-2-yl)methyl)pyrrolidin-3-yl)methyl)piperidine-4-carboxamide] here?
The value was “+ (+ >3 and <5)”.

COc1ccc(-c2noc(N3CCC(C(=O)NCc4ccc(Cl)cc4)CC3)n2)cc1 [Compound 123, N-(4-chlorobenzyl)-1-(3-(4-methoxyphenyl)-1,2,4-oxadiazol-5-yl)piperidine-4-carboxamide] was tested. Which “Myc Efficacy (−LogEC50)” value did it give?
The value was “+ (+ >3 and <5)”.

Which “Myc Efficacy (−LogEC50)” value does the source give for COc1ccc(-c2noc(N3CCC(C(=O)NCC4CCCc5cccnc54)CC3)n2)cc1 (stereo not shown) [Compound 301, 1-(3-(4-methoxyphenyl)-1,2,4-oxadiazol-5-yl)-N-((5,6,7,8-tetrahydroquinolin-8-yl)methyl)piperidine-4-carboxamide] here?
The value was “+ (+ >3 and <5)”.

With COc1ccc(-c2noc(N3CCC(C(=O)NCCc4cccc(C(F)(F)F)n4)CC3)n2)cc1 [Compound 309, 1-(3-(4-methoxyphenyl)-1,2,4-oxadiazol-5-yl)-N-(2-(6-(trifluoromethyl)pyridin-2-yl)ethyl)piperidine-4-carboxamide] as the compound, how does the “Myc Efficacy (−LogEC50)” value read?
The value was “− (− ≤3)”.

COc1ccc(-c2noc(N3CCC(C(=O)NCC4CCN(CC=C(C)C)C4)CC3)n2)cc1 (stereo not shown) [Compound 410, 1-(3-(4-methoxyphenyl)-1,2,4-oxadiazol-5-yl)-N-((1-(3-methylbut-2-en-1-yl)pyrrolidin-3-yl)methyl)piperidine-4-carboxamide] was tested. Which “Myc Efficacy (−LogEC50)” value did it give?
Its value is “++ (++ ≥5 and <6)”.

With COc1ccc(-c2noc(N3CCC(C(=O)NC(c4ccccn4)C4CC4)CC3)n2)cc1 (stereo not shown) [Compound 280, N-(cyclopropyl(pyridin-2-yl)methyl)-1-(3-(4-methoxyphenyl)-1,2,4-oxadiazol-5-yl)piperidine-4-carboxamide] as the compound, how does the “Myc Efficacy (−LogEC50)” value read?
Its value is “+ (+ >3 and <5)”.

How did the “Myc Efficacy (−LogEC50)” value turn out when COc1ccc(-c2noc(N3CCC(C(=O)NC[C@H]4CCN(Cc5ccc(C)cc5)C4)CC3)n2)cc1 [Compound 106, (R)-1-(3-(4-methoxyphenyl)-1,2,4-oxadiazol-5-yl)-N-((1-(4-methylbenzyl)pyrrolidin-3-yl)methyl)piperidine-4-carboxamide] was run?
The value was “++ (++ ≥5 and <6)”.

How did the “Myc Efficacy (−LogEC50)” value turn out when Cc1ccc(CN2CCC(CNC(=O)N3CCN(c4nc(-c5ccc(OCCO)cc5)no4)CC3)C2)cc1 (stereo not shown) [Compound 462, 4-(3-(4-(2-hydroxyethoxy)phenyl)-1,2,4-oxadiazol-5-yl)-N-((1-(4-methylbenzyl)pyrrolidin-3-yl)methyl)piperazine-1-carboxamide] was run?
Its value is “++ (++ ≥5 and <6)”.

For O=C(NCCCN1CCC(Cc2ccccn2)CC1)N1CCN(c2nc(-c3ccc(OC(F)(F)F)cc3)no2)CC1 [Compound 436, N-(3-(4-(pyridin-2-ylmethyl)piperidin-1-yl)propyl)-4-(3-(4-(trifluoromethoxy)phenyl)-1,2,4-oxadiazol-5-yl)piperazine-1-carboxamide], which “Myc Efficacy (−LogEC50)” value is on record?
The value was “+++ (+++ ≥6)”.

Which “Myc Efficacy (−LogEC50)” value does the source give for COc1ccc(-c2noc(C3CCC(C(=O)NCC4CC(=O)N(Cc5ccccc5)C4)CC3)n2)cc1 (stereo not shown) [Compound 176, (1s,4s)-N-((1-benzyl-5-oxopyrrolidin-3-yl)methyl)-4-(3-(4-methoxyphenyl)-1,2,4-oxadiazol-5-yl)cyclohexane-1-carboxamide] here?
Its value is “+ (+ >3 and <5)”.

Which “Myc Efficacy (−LogEC50)” value does the source give for COc1ccc(-c2noc(N3CCC(C(=O)NCC4CCN(CC5CC5(C)C)C4)CC3)n2)cc1 (stereo not shown) [Compound 337, N-((1-((2,2-dimethylcyclopropyl)methyl)pyrrolidin-3-yl)methyl)-1-(3-(4-methoxyphenyl)-1,2,4-oxadiazol-5-yl)piperidine-4-carboxamide] here?
The value was “++ (++ ≥5 and <6)”.

With CCCCN(CC)CCNC(=O)C1CCN(c2nc(-c3ccc(OC)cc3)no2)CC1 [Compound 119, N-(2-(butyl(ethyl)amino)ethyl)-1-(3-(4-methoxyphenyl)-1,2,4-oxadiazol-5-yl)piperidine-4-carboxamide] as the compound, how does the “Myc Efficacy (−LogEC50)” value read?
Its value is “+ (+ >3 and <5)”.

Which “Myc Efficacy (−LogEC50)” value does the source give for COc1ccc(-c2noc(N3CCC(C(=O)NC4CCN(C)c5ccccc54)CC3)n2)cc1 (stereo not shown) [Compound 302, 1-(3-(4-methoxyphenyl)-1,2,4-oxadiazol-5-yl)-N-(1-methyl-1,2,3,4-tetrahydroquinolin-4-yl)piperidine-4-carboxamide] here?
The value was “+ (+ >3 and <5)”.

With O=C(NCCCN1CCC(Cc2ccccn2)CC1)C1CCN(c2nc(-c3ccc(OC(F)F)cc3)no2)CC1 [Compound 453, 1-(3-(4-(difluoromethoxy)phenyl)-1,2,4-oxadiazol-5-yl)-N-(3-(4-(pyridin-2-ylmethyl)piperidin-1-yl)propyl)piperidine-4-carboxamide] as the compound, how does the “Myc Efficacy (−LogEC50)” value read?
Its value is “+++ (+++ ≥6)”.

Which “Myc Efficacy (−LogEC50)” value does the source give for COc1ccc(-c2noc(N3CCC(C(=O)NCCCN4CCN(C(=O)c5ccccc5)CC4)CC3)n2)cc1 [Compound 228, N-(3-(4-benzoylpiperazin-1-yl)propyl)-1-(3-(4-methoxyphenyl)-1,2,4-oxadiazol-5-yl)piperidine-4-carboxamide] here?
The value was “+ (+ >3 and <5)”.

From US12344600B2, “c-Myc mRNA translation modulators and uses thereof in the treatment of cancer” (Anima Biotech Inc., priority 2022, dated 2025)
